Results published in PMC7550323 (Clinical Pharmacokinetics, 2020).

Experiments:
CYP3A4 [1] = target: T1, CYP3A4 (Homo sapiens, UniProt P08684); experiment: clinical; conditions: plasma, po, 2 mg
CYP3A4 [2] = target: T1, CYP3A4; experiment: Effect of gilteritinib on the pharmacokinetics of midazolam; conditions: for AUC24, GLSM ratio (midazolam + gilteritinib/midazolam alone) / Cmax, GLSM ratio (midazolam + gilteritinib/midazolam alone): 100 indicates no change; for increase in AUC24 on coadministration of gilteritinib with midazolam / increase in Cmax on coadministration of gilteritinib with midazolam: relative to midazolam alone
[3] = human, in vivo; cited from earlier work

T1 sequence (P08684 whole entry): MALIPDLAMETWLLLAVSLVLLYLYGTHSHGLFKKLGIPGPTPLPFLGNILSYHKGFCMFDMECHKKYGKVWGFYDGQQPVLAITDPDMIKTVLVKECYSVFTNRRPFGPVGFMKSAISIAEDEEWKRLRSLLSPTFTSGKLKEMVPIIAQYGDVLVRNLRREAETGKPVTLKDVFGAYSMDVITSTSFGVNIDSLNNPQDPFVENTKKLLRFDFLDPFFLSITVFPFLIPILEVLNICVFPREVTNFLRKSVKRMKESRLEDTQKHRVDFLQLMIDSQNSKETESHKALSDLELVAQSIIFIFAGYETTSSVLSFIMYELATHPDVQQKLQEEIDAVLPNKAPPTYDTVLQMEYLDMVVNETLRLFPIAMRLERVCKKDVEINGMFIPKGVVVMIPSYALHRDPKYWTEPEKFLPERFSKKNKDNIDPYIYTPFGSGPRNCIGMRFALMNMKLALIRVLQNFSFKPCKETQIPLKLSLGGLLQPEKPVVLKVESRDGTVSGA

Compound	AUC (CYP3A4 [1])	Cmax (CYP3A4 [1])	AUC24, GLSM ratio (midazolam + gilteritinib/midazolam alone) (CYP3A4 [2]; N = 8)	Cmax, GLSM ratio (midazolam + gilteritinib/midazolam alone) (CYP3A4 [2]; N = 9)	increase in AUC24 on coadministration of gilteritinib with midazolam (CYP3A4 [2])	increase in Cmax on coadministration of gilteritinib with midazolam (CYP3A4 [2])	AUC24, MDZ + gilteritinib (GLSM) (CYP3A4 [2]; midazolam 2 mg oral on Cycle 1 Day 15 with gilteritinib 300 mg QD, N = 8)	Cmax, MDZ + gilteritinib (GLSM) (CYP3A4 [2]; midazolam 2 mg oral on Cycle 1 Day 15 with gilteritinib 300 mg QD, N = 9)	AUC24, MDZ alone (GLSM) (CYP3A4 [2]; midazolam 2 mg oral on Day-1, N = 8)	Cmax, MDZ alone (GLSM) (CYP3A4 [2]; midazolam 2 mg oral on Day-1, N = 9)	half-life [3]	increase in exposure when coadministered with itraconazole [3]	increase in exposure when coadministered with ketoconazole [3]	increase in exposure with a high-fat meal [3]
Cc1ncc2n1-c1ccc(Cl)cc1C(c1ccccc1F)=NC2 [midazolam, reference compound]	54.3 ng·h/mL	14.3 ng/mL	109.5%	111.6%	10%	10%								
OCc1ncc2n1-c1ccc(Cl)cc1C(c1ccccc1F)=NC2 [1-hydroxymidazolam]			149.9%	123.5%	~50%	approximately 23%	17.0 ng·h/mL	4.3 ng/mL	11.3 ng·h/mL	3.5 ng/mL				
CO[C@@H]1[C@H](N(C)C(=O)c2ccccc2)C[C@H]2O[C@]1(C)n1c3ccccc3c3c4c(c5c6ccccc6n2c5c31)C(=O)NC4 [midostaurin]											21 h	2.1 fold	10.4 fold	1.6 fold
